Assay results taken from PubChem BioAssay (NCI).
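Tested at 5 concentrations; 48 h exposure; 96-well plates; endpoints linearly interpolated, else capped at highest concentration. GI50 = concentration required for 50% inhibition of growth. Definition used: TGI = concentration required for complete inhibition of growth.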

Experiments:
Assay in all cases: NCI-60 cell line screen, 48 h
A498 renal = tested on: A498 renal
A549 NSCLC = tested on: A549 NSCLC
HCT-116 colon = tested on: HCT-116 colon
HOP-92 NSCLC = tested on: HOP-92 NSCLC
NCI-H226 lung = tested on: NCI-H226 lung
NCI-H23 lung = tested on: NCI-H23 lung
SK-MEL-28 melanoma = tested on: SK-MEL-28 melanoma
TK-10 renal = tested on: TK-10 renal
U251 CNS = tested on: U251 CNS
UO-31 renal = tested on: UO-31 renal

SMILES | TGI (A498 renal) | TGI (A549 NSCLC) | TGI (HCT-116 colon) | TGI (HOP-92 NSCLC) | TGI (NCI-H226 lung) | TGI (NCI-H23 lung) | TGI (SK-MEL-28 melanoma) | TGI (TK-10 renal) | TGI (U251 CNS) | TGI (UO-31 renal) | GI50 (A498 renal) | GI50 (A549 NSCLC) | GI50 (HCT-116 colon) | GI50 (HOP-92 NSCLC) | GI50 (NCI-H226 lung) | GI50 (NCI-H23 lung) | GI50 (SK-MEL-28 melanoma) | GI50 (TK-10 renal) | GI50 (U251 CNS) | GI50 (UO-31 renal)
COC(=O)C1=CC(=O)C(C(=O)Nc2ccc(OC)cc2)C(c2ccccc2)O1 (stereo unspecified) | 68 µM | > 72.9 µM | > 75.9 µM | 48.1 µM | 55.1 µM | 46.6 µM | > 86.3 µM | 73.5 µM | 51.2 µM | 90.6 µM |  |  |  |  |  |  |  |  |  | 
COc1ccc(CCNc2nc3ccccc3c3[nH]c4ccccc4c23)cc1OC | 9.48 µM | 8.24 µM | 3.52 µM | 8 µM | 25 µM | 24.6 µM | 3.21 µM | 17 µM | 10.3 µM |  | 2.75 µM | 2.66 µM | 1.71 µM | 2.43 µM | 7.82 µM | 10.4 µM | 1.71 µM | 4.47 µM | 2.97 µM | 
CN1CCC(O)C(CNC23CC4CC(CC(C4)C2)C3)C1 (stereo unspecified) | > 100 µM | > 100 µM |  | > 100 µM | > 100 µM | > 100 µM |  | > 100 µM | > 100 µM | > 100 µM |  |  |  |  |  |  |  |  |  | 
CCS[C@H]1NC(=O)C1[C@H](C)O[Si](C)(C)C(C)(C)C (stereo partly specified) | > 100 µM | > 100 µM | > 100 µM | > 100 µM |  | > 100 µM | > 100 µM | > 100 µM | > 100 µM |  |  |  |  |  |  |  |  |  |  | 
Cc1ccc(S(=O)(=O)NCCCN(CCCNS(=O)(=O)c2ccc(C)cc2)S(=O)(=O)c2ccc(C)cc2)cc1 |  | > 100 µM | > 100 µM |  | > 100 µM | > 100 µM | > 100 µM | > 100 µM | > 100 µM | > 100 µM |  |  |  |  |  |  |  |  |  | 
CC(C)c1ccc2c(c1)CCC1C(C)(C)[C@@H](O)CC[C@]21C (stereo partly specified) |  | > 100 µM | 34.1 µM | 52.8 µM | 38.5 µM | 93 µM | > 100 µM | > 100 µM | 52.2 µM | > 100 µM |  |  |  |  |  |  |  |  |  | 
CC(C)NC(=O)OCc1nnn2c1C(OC(=O)NC(C)C)CC2 (stereo unspecified) |  | > 100 µM | > 100 µM | > 100 µM | > 100 µM | > 100 µM | > 100 µM | > 100 µM | > 100 µM | > 100 µM |  |  |  |  |  |  |  |  |  | 
CCOC(=O)C(C(=O)c1ccccc1-c1ccccc1C(=O)O)=P(c1ccccc1)(c1ccccc1)c1ccccc1 | 88.8 µM | > 100 µM | 42 µM |  | 73.7 µM | 40 µM | 33.3 µM | > 100 µM | 36.8 µM |  |  |  |  |  |  |  |  |  |  | 
CCOP1(=O)OCC2OC(n3cnc4c(N)ncnc43)C(O)C2O1 (stereo unspecified) | > 100 µM | > 100 µM | > 100 µM | > 100 µM | > 100 µM |  | > 100 µM | > 100 µM | > 100 µM | > 100 µM |  |  |  |  |  |  |  |  |  | 
Cn1cc(-c2ccc3cc(-c4ccc(CC(=O)Nc5cc(C(C)(C)C)nn5C)cc4)cnc3c2)cn1 | 0.175 µM | > 100 µM | > 100 µM | > 100 µM | > 100 µM | > 100 µM | > 100 µM | > 100 µM | > 100 µM |  | 0.0246 µM | 0.336 µM | 0.191 µM | 0.401 µM | 0.317 µM | 0.407 µM | 0.41 µM | 0.492 µM | 0.236 µM | 
CCOC(=O)c1cnc2ccc(Cl)cc2c1NCCCN(C)C | 37.8 µM | 67.7 µM | > 100 µM | 98.4 µM | 92.2 µM | > 100 µM | 56.3 µM | > 100 µM |  | 57 µM | 15.6 µM | 21.2 µM | 10.2 µM | 20.3 µM | 19.9 µM | 32.7 µM | 22.9 µM | 27.5 µM |  | 16.3 µM
Clc1ccc(Cl)c(N/N=C\c2c[nH]c3ccccc23)c1 | 29.6 µM | 29.4 µM | 27.9 µM | 8.37 µM | 34.3 µM | 29.9 µM |  | 26.8 µM | > 100 µM | 18.4 µM | 14.5 µM | 14.1 µM | 14.8 µM | 1.13 µM | 7.99 µM | 14.1 µM |  | 12 µM | 22 µM | 3.7 µM
C=CCCc1cc(OC)ccc1CN(C)C(C)(C)CO | > 100 µM | > 100 µM | > 100 µM | > 100 µM |  | > 100 µM | > 100 µM | > 100 µM | > 100 µM |  |  |  |  |  |  |  |  |  |  | 
C=C1C(=O)OC2C1C(OC(=O)/C(=C/C)COC(C)=O)CC1(CO1)C1C(OC(=O)/C(=C/C)CO)C=C(C)C21 (stereo unspecified) | 8.94 µM | 24.8 µM | 2.98 µM |  | 4.18 µM | 3.97 µM | 4.16 µM | 6.05 µM | 35.1 µM | 11.2 µM |  |  |  |  |  |  |  |  |  | 
CCc1ccc(Cc2ccc(CC)c(NC(=O)C(=O)Cc3nc4ccccc4nc3C)c2CC)c(CC)c1NC(=O)C(=O)Cc1nc2ccccc2nc1C | > 100 µM | > 100 µM | > 100 µM | 43 µM |  | > 100 µM | > 100 µM | > 100 µM | > 100 µM | 72.8 µM |  |  |  |  |  |  |  |  |  | 
CN(C)CCCn1cnc2ncccc2c1=O |  | > 100 µM | > 100 µM | > 100 µM | > 100 µM | > 100 µM | > 100 µM | > 100 µM | > 100 µM | > 100 µM |  |  |  |  |  |  |  |  |  | 
COC1OC(OC)C2C(c3c(C)cc(C)cc3C)=NOC12 (stereo unspecified) |  | > 100 µM | > 100 µM | > 100 µM | > 100 µM | > 100 µM | > 100 µM | > 100 µM | > 100 µM | > 100 µM |  |  |  |  |  |  |  |  |  | 
COCCNC(=O)C1C(=O)N(CCOC)C(=O)/C1=N/N (stereo unspecified) |  | > 100 µM | > 100 µM | > 100 µM | > 100 µM | > 100 µM | > 100 µM | > 100 µM | > 100 µM | > 100 µM |  |  |  |  |  |  |  |  |  | 
CCCCN(CCCC)C(=Nc1ccccc1)N(CCCC)CCCC | 37.8 µM | 27.9 µM | 13.8 µM | 7.06 µM |  | 5.97 µM | 11.8 µM | 34.4 µM | 17.4 µM | 14.3 µM |  |  |  |  |  |  |  |  |  | 
CCN(CC)CCn1c(=N)n(CC(O)c2ccc(Cl)c(Cl)c2)c2ccccc21 (stereo unspecified) | 15.6 µM |  | 16.4 µM | 13.1 µM | 36.9 µM | 32.5 µM | 4.34 µM | 27.1 µM | 9.04 µM | 20.4 µM | 3.07 µM |  | 4.47 µM | 2.73 µM | 17 µM | 15 µM | 2.05 µM | 14.1 µM | 2.82 µM | 6.97 µM
